Data: patent publication US20220016060A1, “USE OF SODIUM 2-(3-PENTYLPHENYL)ACETATE IN THE TREATMENT OF ALSTRÖM SYNDROME” (LIMINAL BIOSCIENCES LIMITED, priority 2018, published 2022)
“And” between values parts separate entries of the source, which are not always exact repeats. Identical values can stand only once. “Also recorded” adds a separate entry of the source.

Assays:
Assay type in all cases: in vivo, human
ALMS patients [1] = experiment: Liver stiffness by transient elastography (FibroScan) and Metavir score, Phase 2 open-label study; settings: for Change from Baseline Transient Elastography, Mean (SD) / Change from Baseline Transient Elastography, Median / Transient Elastography Score / Metavir Score (F): 800 mg daily oral
Description: The study was a Phase 2, single-centre, single-arm, open-label study of sodium 2-(3-pentylphenyl)acetate administered at a total daily oral dose of 800 mg for up to 72 weeks in subjects with ALMS was undertaken. The initial duration of the study was 24 weeks, and subjects were offered to enrol into an extension phase of 36 or 48 weeks. The schedule of study procedures for the enrolment, intervention, and assessments for participants is outlined in FIG. 1. Sodium 2-(3-pentylphenyl)acetate was formulated in soft gelatine capsules containing 200 mg of Sodium 2-(3-pentylphenyl)acetate (amorphous powder) per capsule, polyethylene glycol 400, National Formulary (NF), hydrochloric acid (for pH adjustment), and water. A total of 15 subjects participated in the study. […] Twelve (12) subjects met the eligibility criteria and received at least 1 dose of 800 mg sodium 2-(3-pentylphenyl)acetate, with all 12 subjects completing the initial 24-week treatment period as planned. A 36-week EP was added to the study protocol (Table 1). Ten (10) of the 12 subjects who completed the initial 24-week study drug treatment period continued in the EP, with 6 subjects having a break in treatment until the amendment was implemented before continuing treatment in the EP and 4 subjects continuing in the EP without any break in treatment. Two subjects (826-001-002 and 826-001-014) completed the study after the initial 24-week study drug treatment period. The effect of sodium 2-(3-pentylphenyl)acetate on liver histology in ALMS patients was first assessed by measuring liver stiffness. Liver stiffness is a physical parameter that reflects the health of the liver and is commonly used to diagnose liver diseases. Increased liver stiffness may be associated with hepatic dysfunction.

ALMS patients [2] = experiment: Urinary kidney toxicity biomarkers (MCP-1, KIM-1, clusterin, cystatin C, osteopontin); settings: analyte/creatinine ratio in urine; 800 mg daily oral
Description: The study was a Phase 2, single-centre, single-arm, open-label study of sodium 2-(3-pentylphenyl)acetate administered at a total daily oral dose of 800 mg for up to 72 weeks in subjects with ALMS was undertaken. The initial duration of the study was 24 weeks, and subjects were offered to enrol into an extension phase of […]. The schedule of study procedures for the enrolment, intervention, and assessments for participants is outlined in FIG. 1. Sodium 2-(3-pentylphenyl)acetate was formulated in soft gelatine capsules containing 200 mg of Sodium 2-(3-pentylphenyl)acetate (amorphous powder) per capsule, polyethylene glycol 400, National Formulary (NF), hydrochloric acid (for pH adjustment), and water. […] The levels of these markers was assessed at baseline and after 24 weeks of treatment with sodium 2-(3-pentylphenyl)acetate in ALMS patients, and the results are reported in Table 15.

ALMS patients [3] = experiment: Histological examination of adipocyte tissue, average adipocyte area
Description: The study was a Phase 2, single-centre, single-arm, open-label study of sodium 2-(3-pentylphenyl)acetate administered at a total daily oral dose of 800 mg for up to 72 weeks in subjects with ALMS was undertaken. The initial duration of the study was 24 weeks, and subjects were offered to enrol into an extension phase of 36 or 48 weeks. The schedule of study procedures for the enrolment, intervention, and assessments for participants is outlined in FIG. 1. Sodium 2-(3-pentylphenyl)acetate was formulated in soft gelatine capsules containing 200 mg of Sodium 2-(3-pentylphenyl)acetate (amorphous powder) per capsule, polyethylene glycol 400, National Formulary (NF), hydrochloric acid (for pH adjustment), and water. Histological examination of adipocyte tissue in an ALMS subject (before study drug treatment) was characterized by hypertrophy and coalescence of adipocytes, forming giant vesicular vacuolation/steatosis (FIG. 2A). […] Decreases in average adipocyte area from baseline ranged from 11% to 26%. Of note, the largest increase in average adipocyte area from baseline occurred in Subject 826-001-012 (25%), who had ongoing medical histories of hypothyroidism, myocardial ischemia, T2D, chronic kidney disease, and dyslipidemia. This subject was also characterized as obese with a baseline BMI of 38.13 kg/m^2.

[4] = individual subjects, EP Week 12 (Week 36)
[5] = individual subjects, EP Week 24 (Week 48)
[6] = individual subjects, EP Week 36 (Week 60)
[7] = 800 mg, Week 24, mean of subjects
[8] = 800 mg, Week 24, median of subjects

In the case of `CCCCCc1cccc(CC(=O)[O-])c1.[Na+]` [sodium 2-(3-pentylphenyl)acetate], the “subjects in whom liver stiffness decreased from baseline” value (ALMS patients [1]; 8/11 subjects, after treatment with 800 mg) is reported as 72.3%, the “Change from Baseline Transient Elastography, Mean (SD)” value (shortened to “Change … (SD)”) (ALMS patients [1]; EP Week 12 (Week 36), N=10) is reported as −1.41 (2.585) kPa and the “Change from Baseline Transient Elastography, Median” value (ALMS patients [1]; EP Week 12 (Week 36), N=10) is reported as −1.75 kPa. For the same compound, the “Change … (SD)” value (ALMS patients [1]; EP Week 24 (Week 48), N=10) was −1.49 (2.335) kPa, the “Change from Baseline Transient Elastography, Median” value (ALMS patients [1]; EP Week 24 (Week 48), N=10) was −1.45 kPa and the “Change … (SD)” value (ALMS patients [1]; EP Week 36 (Week 60), N=9) was −2.59 (2.703) kPa. For the same compound, the “Change from Baseline Transient Elastography, Median” value (ALMS patients [1]; EP Week 36 (Week 60), N=9) was −2.30 kPa, the “largest increase in liver stiffness from baseline” value (ALMS patients [1]; Subject 826-001-013, 30-day break in treatment) was 1.8 kPa and the “Metavir score at Week 60” value (ALMS patients [1]; Subject 826-001-015, baseline F4) was “F0/1 (Metavir score F0-F1: absence or mild fibrosis (2.5-7.0 kPa on FibroScan ®))”. For the same compound, the “number of subjects with at least a 1-grade reduction in liver fibrosis (Metavir scoring system)” value (ALMS patients [1]; Subjects 826-001-001, -004, -012, -015) was 4 subjects, the “Change … (SD)” value (ALMS patients [1]; Week 12, N=11) was −1.19 (2.160) kPa and the “Change from Baseline Transient Elastography, Median” value (ALMS patients [1]; Week 12, N=11) was −1.50 kPa. For the same compound, the “Change … (SD)” value (ALMS patients [1]; Week 24, N=11) was −1.01 (2.308) kPa, the “Change from Baseline Transient Elastography, Median” value (ALMS patients [1]; Week 24, N=11) was −0.70 kPa and the “decrease in liver stiffness from baseline (mean)” value (ALMS patients [1]; after 60 weeks of treatment, p=0.0207) was 2.59 kPa. For the same compound, the “Transient Elastography Score” value (ALMS patients [1]; individual subjects (one line per subject), Week 12) was 7.1 kPa and 6.1 kPa and 4.5 kPa and 5.3 kPa and 3.1 kPa and 10.5 kPa and 19.6 kPa and 7.8 kPa and 12.2 kPa and 12.0 kPa and 50.5 kPa and 7.7 kPa, the “Metavir Score (F)” value (ALMS patients [1]; [4]) was “(F0/1) (Metavir score F0-F1: absence or mild fibrosis (2.5-7.0 kPa on FibroScan ®)); also recorded: (F2) (Metavir score F2: significant fibrosis ≥ 7.1 to < 9.5 kPa on FibroScan ®)); also recorded: (F4) (Metavir score F4: cirrhosis( ≥ 12.5 kPa on FibroScan ®)); also recorded: (F3) (Metavir score F3: severe fibrosis ≥ 9.5 to < 12.5 kPa on FibroScan ®)” and the “Transient Elastography Score” value (ALMS patients [1]; [4]) was 6.6 kPa and 4.2 kPa and 6.5 kPa and 4.6 kPa and 8.9 kPa and 18.6 kPa and 5.8 kPa and 10.2 kPa and 14.7 kPa and 7.4 kPa. For the same compound, the “Metavir Score (F)” value (ALMS patients [1]; [5]) was “(F2) (Metavir score F2: significant fibrosis ≥ 7.1 to < 9.5 kPa on FibroScan ®)); also recorded: (F0/1) (Metavir score F0-F1: absence or mild fibrosis (2.5-7.0 kPa on FibroScan ®)); also recorded: (F4) (Metavir score F4: cirrhosis( ≥ 12.5 kPa on FibroScan ®)); also recorded: (F3) (Metavir score F3: severe fibrosis ≥ 9.5 to < 12.5 kPa on FibroScan ®)”, the “Transient Elastography Score” value (ALMS patients [1]; [5]) was 7.1 kPa and 4.1 kPa and 4.7 kPa and 5.1 kPa and 7.5 kPa and 21.6 kPa and 5.0 kPa and 12.1 kPa and 12.6 kPa and 6.9 kPa and the “Metavir Score (F)” value (ALMS patients [1]; [6]) was “(F2) (Metavir score F2: significant fibrosis ≥ 7.1 to < 9.5 kPa on FibroScan ®)); also recorded: (F0/1) (Metavir score F0-F1: absence or mild fibrosis (2.5-7.0 kPa on FibroScan ®)); also recorded: (F4) (Metavir score F4: cirrhosis( ≥ 12.5 kPa on FibroScan ®)); also recorded: (F3) (Metavir score F3: severe fibrosis ≥ 9.5 to < 12.5 kPa on FibroScan ®)”. For the same compound, the “Transient Elastography Score” value (ALMS patients [1]; [6]) was 7.8 kPa and 3.8 kPa and 5.0 kPa and 3.9 kPa and 17.1 kPa and 6.0 kPa and 8.6 kPa and 12.2 kPa and 5.1 kPa, the “Metavir Score (F)” value (ALMS patients [1]; individual subjects, Week 12) was “(F2) (Metavir score F2: significant fibrosis ≥ 7.1 to < 9.5 kPa on FibroScan ®)); also recorded: (F0/1) (Metavir score F0-F1: absence or mild fibrosis (2.5-7.0 kPa on FibroScan ®)); also recorded: (F3) (Metavir score F3: severe fibrosis ≥ 9.5 to < 12.5 kPa on FibroScan ®); also recorded: (F4) (Metavir score F4: cirrhosis( ≥ 12.5 kPa on FibroScan ®))” and the “Metavir Score (F)” value (ALMS patients [1]; individual subjects, Week 24) was “(F2) (Metavir score F2: significant fibrosis ≥ 7.1 to < 9.5 kPa on FibroScan ®)); also recorded: (F0/1) (Metavir score F0-F1: absence or mild fibrosis (2.5-7.0 kPa on FibroScan ®)); also recorded: (F4) (Metavir score F4: cirrhosis( ≥ 12.5 kPa on FibroScan ®))”. The “Transient Elastography Score” value (ALMS patients [1]; individual subjects, Week 24) was 7.2 kPa and 7.6 kPa and 5.9 kPa and 5.2 kPa and 4.6 kPa and 8.1 kPa and 21.8 kPa and 5.6 kPa and 8.6 kPa and 14.3 kPa and 48.9 kPa and 9.0 kPa, the “Urinary Clusterin, Mean Fold Change from Baseline to Week 24” value (ALMS patients [2]) was 0.66 and the “Urinary Clusterin, mean change from Baseline to Week 24 (%)” value (ALMS patients [2]) was −34%. The “Urinary Cystatin C, Mean Fold Change from Baseline to Week 24” value (ALMS patients [2]) was 0.75, the “Urinary Cystatin C, mean change from Baseline to Week 24 (%)” value (ALMS patients [2]) was −25% and the “Urinary KIM-1, Mean Fold Change from Baseline to Week 24” value (ALMS patients [2]) was 0.67. For the same compound, the “Urinary KIM-1, mean change from Baseline to Week 24 (%)” value (ALMS patients [2]) was −33%, the “Urinary MCP-1, Mean Fold Change from Baseline to Week 24” value (ALMS patients [2]) was 0.85 and the “Urinary MCP-1, mean change from Baseline to Week 24 (%)” value (ALMS patients [2]) was −15%. For the same compound, the “Urinary Osteopontin, Mean Fold Change from Baseline to Week 24” value (ALMS patients [2]) was 0.82, the “Urinary Osteopontin, mean change from Baseline to Week 24 (%)” value (ALMS patients [2]) was −18% and the “Average Adipocyte Area, % Change from Baseline, Mean” value (ALMS patients [3]; [7]) was −9%. The “Average Adipocyte Area, Mean” value (ALMS patients [3]; [7]) was 5550.7 μm^2, the “Average Adipocyte Area, % Change from Baseline, Median” value (ALMS patients [3]; [8]) was −12% and the “Average Adipocyte Area, Median” value (ALMS patients [3]; [8]) was 5195.1 μm^2. The “subjects in whom average adipocyte area decreased from baseline” value (ALMS patients [3]; 6/9 subjects, after 24 weeks) was 66.7%, the “largest increase in average adipocyte area from baseline” value (ALMS patients [3]; Subject 826-001-012, after 24 weeks) was 25% and the “histological examination of adipocyte tissue” value (ALMS patients [3]; an ALMS subject, after 24 weeks of treatment with 800 mg, FIG. 2B) was “more distinct adipocytes were seen that were smaller in size with no observed coalescence”.
